Laboratory results from patent publication US20100298141A1, “SUBSTITUTED PYRIDINE N-OXIDE HERBICIDES” (E. I. DU PONT DE NEMOURS AND COMPANY, priority 2007, published 2010).

What was measured:
morningglory [1] = experiment: Test C pre-/postemergence test; type: in vivo, Ipomoea coccinea; settings: for Plant response rating, Morningglory: 31 g ai/ha, scale 0 to 100 (0 no effect, 100 complete control)
In short: (§1)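 Test chemicals were formulated with surfactant in a non-phytotoxic solvent and sprayed both on freshly planted seeds (preemergence) and on 1- to 4-leaf plants of 2–18 cm (postemergence). Flooded-paddy pots received compound directly into 3 cm of standing water, maintained for the test.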

crabgrass = experiment: Test A pre-/postemergence greenhouse test; type: in vivo, Digitaria sanguinalis; settings: for Plant response rating, Crabgrass, Large: 0 to 100 scale where 0 is no effect and 100 is complete control; for Crabgrass, Large plant response rating: 0 to 100 scale
In short: (§2)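 Planting was into mixed loam soil and sand; preemergence treatment followed as a directed soil spray. Concurrently, emerged plants (one- to two-leaf, 2–10 cm) received postemergence applications of identically formulated compound (non-phytotoxic solvent, surfactant). After approximately ten days under greenhouse conditions, injury was judged by eye against untreated plants.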

corn = experiment: Test C pre-/postemergence test; type: in vivo, Zea mays
In short: as §1

yellow nutsedge = experiment: Test C pre-/postemergence test; type: in vivo, Cyperus esculentus; settings: for Plant response rating, Nutsedge, Yellow: 31 g ai/ha, scale 0 to 100 (0 no effect, 100 complete control)
In short: as §1

soybean = experiment: Test C pre-/postemergence test; type: in vivo, Glycine max; settings: for Plant response rating, Soybean: 31 g ai/ha, scale 0 to 100 (0 no effect, 100 complete control)
In short: as §1

cocklebur = experiment: Test C pre-/postemergence test; type: in vivo, Xanthium strumarium; settings: for Plant response rating, Cocklebur: 31 g ai/ha, scale 0 to 100 (0 no effect, 100 complete control)
In short: as §1

common ragweed = experiment: Test C pre-/postemergence test; type: in vivo, Ambrosia elation; settings: for Plant response rating, Ragweed: 31 g ai/ha, scale 0 to 100 (0 no effect, 100 complete control)
In short: as §1

giant foxtail [2] = experiment: Test A pre-/postemergence greenhouse test; type: in vivo, Setaria faberi; settings: for Plant response rating, Foxtail, Giant: 0 to 100 scale where 0 is no effect and 100 is complete control; for Foxtail, Giant plant response rating: 0 to 100 scale
In short: as §2

lambsquarters = experiment: Test C pre-/postemergence test; type: in vivo, Chenopodium album; settings: for Plant response rating, Lambsquarters: 31 g ai/ha, scale 0 to 100 (0 no effect, 100 complete control)
In short: as §1

giant foxtail [3] = experiment: Test C pre-/postemergence test; type: in vivo, Setaria faberii; settings: for Plant response rating, Foxtail, Giant: 31 g ai/ha, scale 0 to 100 (0 no effect, 100 complete control)
In short: as §1

downy brome = experiment: Test C pre-/postemergence test; type: in vivo, Bromus tectorum; settings: for Plant response rating, Bromegrass, Downy: 31 g ai/ha, scale 0 to 100 (0 no effect, 100 complete control)
In short: as §1

johnsongrass = experiment: Test C pre-/postemergence test; type: in vivo, Sorghum halepense; settings: for Plant response rating, Johnsongrass: 31 g ai/ha, scale 0 to 100 (0 no effect, 100 complete control)
In short: as §1

wheat = experiment: Test A pre-/postemergence greenhouse test; type: in vivo, Triticum aestivum; settings: for Plant response rating, Wheat: 0 to 100 scale where 0 is no effect and 100 is complete control; for Wheat plant response rating: 0 to 100 scale
In short: as §2

woolly cupgrass = experiment: Test C pre-/postemergence test; type: in vivo, Eriochloa villosa; settings: for Plant response rating, Cupgrass, Woolly: 31 g ai/ha, scale 0 to 100 (0 no effect, 100 complete control)
In short: as §1

umbrella sedge = experiment: Test C flooded paddy test; type: in vivo, Cyperus difformis; settings: Flood
In short: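 Flooded 3 cm over soil; compound into paddy water; depth kept constant. Greenhouse 13–15 d.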

morningglory [4] = experiment: Test A pre-/postemergence greenhouse test; type: in vivo, Ipomoea spp.; settings: for Plant response rating, Morningglory: 0 to 100 scale where 0 is no effect and 100 is complete control; for Morningglory plant response rating: 0 to 100 scale
In short: as §2

Goosegrass = experiment: Test C pre-/postemergence test; type: in vivo, Eleusin indica; settings: for Plant response rating, Goosegrass: 31 g ai/ha, scale 0 to 100 (0 no effect, 100 complete control)
In short: as §1

[5] = 62 g ai/ha, Preemergence, scale 0 to 100
[6] = 125 g ai/ha, preemergence, scale 0 (no effect) to 100 (complete control)
[7] = preemergence, 250 g ai/ha, scale 0 (no effect) to 100 (complete control)
[8] = Postemergence, 500 g ai/ha, 0 is no effect, 100 is complete control
[9] = Preemergence, 125 g ai/ha, 0 no effect, 100 complete control
[10] = 62 g ai/ha, scale 0 to 100 (0 no effect, 100 complete control)
[11] = 250 g ai/ha, scale 0 to 100, 0 no effect, 100 complete control, 13 to 15 days

Cc1cc[n+]([O-])c(S(=O)(=O)Cc2c(C(F)(F)F)nn(C)c2OCC(F)F)c1 [Compound 94]
Morningglory plant response rating (morningglory [1]; [5]): 90
Morningglory plant response rating (morningglory [1]; [6]): 98
Plant response rating, Morningglory (morningglory [1]; Preemergence): 30
Morningglory plant response rating (morningglory [1]; [7]): 100
Plant response rating, Crabgrass, Large (crabgrass; Postemergence, 125 g ai/ha): 70
Crabgrass, Large plant response rating (crabgrass; [8]): 90
Crabgrass, Large plant response rating (crabgrass; [9]): 90
Plant response rating, Crabgrass, Large (crabgrass; Preemergence, 500 g ai/ha): 100
Corn plant response rating (corn; [5]): 10
Corn plant response rating (corn; [6]): 90
Corn plant response rating (corn; [7]): 95
Nutsedge, Yellow plant response rating (yellow nutsedge; [5]): 55
Nutsedge, Yellow plant response rating (yellow nutsedge; [6]): 60
Plant response rating, Nutsedge, Yellow (yellow nutsedge; Preemergence): 0
Nutsedge, Yellow plant response rating (yellow nutsedge; [7]): 98
Soybean plant response rating (soybean; [5]): 30
Soybean plant response rating (soybean; [6]): 30
Plant response rating, Soybean (soybean; Preemergence): 0
Soybean plant response rating (soybean; [7]): 80
Cocklebur plant response rating (cocklebur; [5]): 0
Cocklebur plant response rating (cocklebur; [6]): 0
Plant response rating, Cocklebur (cocklebur; Preemergence): 0
Cocklebur plant response rating (cocklebur; [7]): 0
Ragweed plant response rating (common ragweed; [5]): 100
Ragweed plant response rating (common ragweed; [6]): 100
Plant response rating, Ragweed (common ragweed; Preemergence): 60
Ragweed plant response rating (common ragweed; [7]): 100
Plant response rating, Foxtail, Giant (giant foxtail [2]; Postemergence, 125 g ai/ha): 50
Foxtail, Giant plant response rating (giant foxtail [2]; [8]): 80
Foxtail, Giant plant response rating (giant foxtail [2]; [9]): 100
Plant response rating, Foxtail, Giant (giant foxtail [2]; Preemergence, 500 g ai/ha): 100
Lambsquarters plant response rating (lambsquarters; [5]): 90
Lambsquarters plant response rating (lambsquarters; [6]): 100
Plant response rating, Lambsquarters (lambsquarters; Preemergence): 90
Lambsquarters plant response rating (lambsquarters; [7]): 100
Foxtail, Giant plant response rating (giant foxtail [3]; [5]): 95
Foxtail, Giant plant response rating (giant foxtail [3]; [6]): 100
Plant response rating, Foxtail, Giant (giant foxtail [3]; Preemergence): 90
Foxtail, Giant plant response rating (giant foxtail [3]; [7]): 100
Bromegrass, Downy plant response rating (downy brome; [5]): 75
Bromegrass, Downy plant response rating (downy brome; [6]): 80
Plant response rating, Bromegrass, Downy (downy brome; Preemergence): 10
Bromegrass, Downy plant response rating (downy brome; [7]): 95
Johnsongrass plant response rating (johnsongrass; [5]): 95
Johnsongrass plant response rating (johnsongrass; [6]): 100
Plant response rating, Johnsongrass (johnsongrass; Preemergence): 85
Johnsongrass plant response rating (johnsongrass; [7]): 100
Plant response rating, Wheat (wheat; Postemergence, 125 g ai/ha): 60
Wheat plant response rating (wheat; [8]): 80
Wheat plant response rating (wheat; [9]): 40
Wheat plant response rating (wheat; Preemergence, 500 g ai/ha, 0 no effect, 100 complete control): 90
Cupgrass, Woolly plant response rating (woolly cupgrass; [5]): 90
Cupgrass, Woolly plant response rating (woolly cupgrass; [6]): 100
Plant response rating, Cupgrass, Woolly (woolly cupgrass; Preemergence): 10
Cupgrass, Woolly plant response rating (woolly cupgrass; [7]): 100
Plant response rating, Sedge, Umbrella (umbrella sedge; [10]): 0
Plant response rating, Sedge, Umbrella (umbrella sedge; [11]): 90
Plant response rating, Morningglory (morningglory [4]; Postemergence, 125 g ai/ha): 50
Morningglory plant response rating (morningglory [4]; [8]): 60
Morningglory plant response rating (morningglory [4]; [9]): 50
Plant response rating, Morningglory (morningglory [4]; Preemergence, 500 g ai/ha): 100
Goosegrass plant response rating (Goosegrass; [5]): 100
Goosegrass plant response rating (Goosegrass; [6]): 100
Plant response rating, Goosegrass (Goosegrass; Preemergence): 95
Goosegrass plant response rating (Goosegrass; [7]): 100

Cn1nc(C(F)(F)F)c(C[S+]([O-])c2cccc[n+]2[O-])c1OCC(F)F (stereo not shown) [Compound 75]
Morningglory plant response rating (morningglory [1]; [5]): 100
Morningglory plant response rating (morningglory [1]; [6]): 100
Plant response rating, Morningglory (morningglory [1]; Preemergence): 30
Morningglory plant response rating (morningglory [1]; [7]): 100
Plant response rating, Crabgrass, Large (crabgrass; Postemergence, 125 g ai/ha): 70
Crabgrass, Large plant response rating (crabgrass; [8]): 80
Crabgrass, Large plant response rating (crabgrass; [9]): 70
Plant response rating, Crabgrass, Large (crabgrass; Preemergence, 500 g ai/ha): 100
Corn plant response rating (corn; [5]): 60
Corn plant response rating (corn; [6]): 95
Plant response rating, Corn (corn; Preemergence, 31 g ai/ha, scale 0 to 100 (0 no effect, 100 complete control)): 60
Corn plant response rating (corn; [7]): 98
Nutsedge, Yellow plant response rating (yellow nutsedge; [5]): 50
Nutsedge, Yellow plant response rating (yellow nutsedge; [6]): 70
Plant response rating, Nutsedge, Yellow (yellow nutsedge; Preemergence): 0
Nutsedge, Yellow plant response rating (yellow nutsedge; [7]): 100
Soybean plant response rating (soybean; [5]): 98
Soybean plant response rating (soybean; [6]): 100
Plant response rating, Soybean (soybean; Preemergence): 0
Cocklebur plant response rating (cocklebur; [5]): 0
Cocklebur plant response rating (cocklebur; [6]): 0
Plant response rating, Cocklebur (cocklebur; Preemergence): 0
Cocklebur plant response rating (cocklebur; [7]): 10
Ragweed plant response rating (common ragweed; [5]): 80
Ragweed plant response rating (common ragweed; [6]): 85
Plant response rating, Ragweed (common ragweed; Preemergence): 0
Ragweed plant response rating (common ragweed; [7]): 100
Plant response rating, Foxtail, Giant (giant foxtail [2]; Postemergence, 125 g ai/ha): 80
Foxtail, Giant plant response rating (giant foxtail [2]; [8]): 90
Foxtail, Giant plant response rating (giant foxtail [2]; [9]): 90
Plant response rating, Foxtail, Giant (giant foxtail [2]; Preemergence, 500 g ai/ha): 100
Lambsquarters plant response rating (lambsquarters; [5]): 100
Lambsquarters plant response rating (lambsquarters; [6]): 100
Plant response rating, Lambsquarters (lambsquarters; Preemergence): 100
Lambsquarters plant response rating (lambsquarters; [7]): 100
Foxtail, Giant plant response rating (giant foxtail [3]; [5]): 85
Foxtail, Giant plant response rating (giant foxtail [3]; [6]): 100
Plant response rating, Foxtail, Giant (giant foxtail [3]; Preemergence): 80
Foxtail, Giant plant response rating (giant foxtail [3]; [7]): 100
Bromegrass, Downy plant response rating (downy brome; [5]): 50
Bromegrass, Downy plant response rating (downy brome; [6]): 85
Plant response rating, Bromegrass, Downy (downy brome; Preemergence): 40
Bromegrass, Downy plant response rating (downy brome; [7]): 90
Johnsongrass plant response rating (johnsongrass; [5]): 85
Johnsongrass plant response rating (johnsongrass; [6]): 100
Plant response rating, Johnsongrass (johnsongrass; Preemergence): 50
Johnsongrass plant response rating (johnsongrass; [7]): 100
Plant response rating, Wheat (wheat; Postemergence, 125 g ai/ha): 50
Wheat plant response rating (wheat; [8]): 70
Wheat plant response rating (wheat; [9]): 70
Plant response rating, Wheat (wheat; Preemergence, 500 g ai/ha): 100
Cupgrass, Woolly plant response rating (woolly cupgrass; [5]): 85
Cupgrass, Woolly plant response rating (woolly cupgrass; [6]): 100
Plant response rating, Cupgrass, Woolly (woolly cupgrass; Preemergence): 85
Cupgrass, Woolly plant response rating (woolly cupgrass; [7]): 100
Plant response rating, Sedge, Umbrella (umbrella sedge; [10]): 50
Plant response rating, Sedge, Umbrella (umbrella sedge; [11]): 85
Plant response rating, Morningglory (morningglory [4]; Postemergence, 125 g ai/ha): 40
Morningglory plant response rating (morningglory [4]; [8]): 90
Morningglory plant response rating (morningglory [4]; [9]): 40
Plant response rating, Morningglory (morningglory [4]; Preemergence, 500 g ai/ha): 90
Goosegrass plant response rating (Goosegrass; [5]): 85
Goosegrass plant response rating (Goosegrass; [6]): 100
Plant response rating, Goosegrass (Goosegrass; Preemergence): 80
Goosegrass plant response rating (Goosegrass; [7]): 100
